Like-named read-outs stand apart in the source and are kept apart here. Marks after values point to notes of the source that are not given here.
Assays:
[1] = literature data, cited from earlier work; for LogK [ZnL]/[Zn][L] (stability constant): 25° C., μ = 0.10M (KCl); for pZn: pM = −log[M]free at pH7.4, [M]total = 1 μmol/dm^3, [L]total = 1.1 μmol/dm^3
[2] = literature data, cited from earlier work; for LogK [CuL]/[Cu][L] (stability constant): 25° C., μ = 0.10M (KCl); for pCu: pM = −log[M]free at pH7.4, [M]total = 1 μmol/dm^3, [L]total = 1.1 μmol/dm^3
[3] = literature data, cited from earlier work; for LogK [GdL]/[Gd][L] (stability constant): 25° C., μ = 0.10M (KCl); for logKsel(Gd/Ca) (selectivity constant): Gd over Ca; for logKsel(Gd/Cu) (selectivity constant): Gd over Cu; for logKsel(Gd/Zn) (selectivity constant): Gd over Zn; for pGd: pM = −log[M]free at pH7.4, [M]total = 1 μmol/dm^3, [L]total = 1.1 μmol/dm^3
[4] = 25° C., μ = 0.10M (KCl); literature data; cited from earlier work
[5] = for logKCuL(PH7.4) (conditional stability constant): pH 7.4; for pCu: pM = −log[M]free at pH7.4, [M]total = 1 μmol/dm^3, [L]total = 1.1 μmol/dm^3
[6] = 25° C., μ = 0.10M (KCl)
[7] = for logKCaL(pH7.4) (conditional stability constant): pH 7.4; for pCa: pM = −log[M]free at pH7.4, [M]total = 1 μmol/dm^3, [L]total = 1.1 μmol/dm^3
[8] = for logKsel(Gd/Ca) (selectivity constant): Gd over Ca; for logKsel(Gd/Ca) (selectivity constant) / logKsel(Gd/Cu) (selectivity constant) / logKsel(Gd/Zn) (selectivity constant): 25° C., μ = 0.10M (KCl); for logKsel(Gd/Cu) (selectivity constant): Gd over Cu; for logKsel(Gd/Zn) (selectivity constant): Gd over Zn; for logKGdL(pH7.4) (conditional stability constant): pH 7.4; for pGd: pM = −log[M]free at pH7.4, [M]total = 1 μmol/dm^3, [L]total = 1.1 μmol/dm^3
[9] = for logKZnL(pH7.4) (conditional stability constant): pH 7.4; for pZn: pM = −log[M]free at pH7.4, [M]total = 1 μmol/dm^3, [L]total = 1.1 μmol/dm^3
[10] = Relaxation times (T1, T2) and relaxivities (R1, R2) at 1.5 T; format: physicochemical; details: 1.5 T; mean value(±SD)
Procedure: T1 measurements were carried out using an inversion recovery method with a variable inversion time (TI) at 1.5 T. The MR images were acquired at 35 different TI values ranging from 50 to 1750 ms. T1 relaxation times were obtained from the nonlinear least-squares fit of the signal intensity measured at each T1 value. For T2 measurements the CPMG (Carr-Purcell-Meiboon-Gill) pulse sequence was adapted for multiple spin-echo measurements. Thirty-four images were acquired with 34 different echo time (TE) values. T2 relaxation times were obtained from the nonlinear least-squares fit of the mean pixel values for the multiple spin-echo measurements at each echo time. Relaxivities were then calculated as an inverse (R=1/s·mM) of relaxation time per mM. The determined relaxation times and relaxivities are finally transformed to a phantom map. The phantom images were obtained with the same concentration of Dotarem® and gadolinium complexes or comparative purposes. […] Table 2 summarizes the relaxation times and relaxivities for gadolinium complexes of the present invention along with other Gd-complexes.

[11] = literature data, cited from earlier work; for LogK [CaL]/[Ca][L] (stability constant): 25° C., μ = 0.10M (KCl)
[12] = Transmetalation kinetics: evolution of paramagnetic relaxation rate R1P(t)/R1P(0) in presence of ZnCl2; format: physicochemical; details: phosphate-buffered solution pH 7.4, 2.5 mmol/L Gd-complex and 2.5 mmol/L ZnCl2, 72 hours
Source text: […]. The relative value of R1^P at time t, R1^P(t)/R1^P(0), is therefore a good estimate of the extent of transmetalation. The evolution of R1^P(t)/R1^P(0) over time gives relevant information about the kinetics of the reaction, whereas the plateau value theoretically reached at t=∞ will reflect the thermodynamic aspect.
Accordingly, in order to investigate the transmetalation kinetics of the gadolinium complexes according to the present invention, the evolution of water proton relaxation rate (R1^P) of a phosphate-buffered solution (pH 7.4) containing 2.5 mmol/L of Gd-complex and 2.5 mmol/L of ZnCl2 with time was measured. To measure the change in the relaxation rate, 10 μL of a ZnCl2 solution (250 mmol/L) was added to 1 mL of a buffered solution of the Gd-complex and the mixture was vigorously stirred. The same experiment was performed with Dotarem®, Omniscan®, Multihance®, Primovist® and ethyl tranexamate (6) with zinc acetate for comparison. The measurement was made on a 3T whole body system (Magnetom Tim Trip; Simens, Germany) at room temperature.

[13] = reference values from ref. 8 or 9; cited from earlier work

SMILES: O=C(O)CN(CCN(CC(=O)O)CC(=O)O)CCN(CC(=O)O)C(COCc1ccccc1)C(=O)O (centres unmarked) [BOPTA]
- logKZnL(pH7.4) (conditional stability constant) [1]: 13.9
- logKCuL(PH7.4) (conditional stability constant) [2]: 17.3
- LogK [GdL]/[Gd][L] (stability constant) [3]: 22.6
- logKGdL(pH7.4) (conditional stability constant) [3]: 18.4
- LogK [H2L]/[HL][H] (protonation constant) [4]: 8.21
- LogK [H3L]/[H2L][H] (protonation constant) [4]: 4.35
- LogK [H4L]/[H3L][H] (protonation constant) [4]: 2.83
- LogK [HL]/[L][H] (protonation constant) [4]: 10.71
- ΣpKa (overall basicity) [4]: 26.10

SMILES: O=C(O)CN1CCN(CC(=O)O)CCN(CC(=O)NCC2CCC(C(=O)O)CC2)CCN(CC(=O)O)CC1 (centres unmarked) [Compound 4a, DO3A-tranexamic acid]
- logKCuL(PH7.4) (conditional stability constant) [5]: 11.70
- pCu [5]: 10.70
- LogK [H2L]/[HL][H] (protonation constant) [6]: 8.91
- LogK [H3L]/[H2L][H] (protonation constant) [6]: 4.93
- LogK [H4L]/[H3L][H] (protonation constant) [6]: 4.87
- LogK [HL]/[L][H] (protonation constant) [6]: 11.73
- logKCaL(pH7.4) (conditional stability constant) [7]: 8.16
- pCa [7]: 7.16
- logKsel(Gd/Ca) (selectivity constant) [8]: 10.56
- logKsel(Gd/Cu) (selectivity constant) [8]: 7.02
- logKsel(Gd/Zn) (selectivity constant) [8]: 7.87
- logKGdL(pH7.4) (conditional stability constant) [8]: 18.73
- pGd [8]: 17.73
- logKZnL(pH7.4) (conditional stability constant) [9]: 10.86
- pZn [9]: 9.86

SMILES: CCOC(=O)C1CCC(CNC(=O)CN2CCN(CC(=O)O)CCN(CC(=O)O)CCN(CC(=O)O)CC2)CC1 (centres unmarked) [Compound 4b, DO3A-tranexamic Acid Ester Derivative 1]
- logKCuL(PH7.4) (conditional stability constant) [5]: 12.04
- pCu [5]: 11.04
- LogK [H2L]/[HL][H] (protonation constant) [6]: 9.35
- LogK [H3L]/[H2L][H] (protonation constant) [6]: 5.24
- LogK [HL]/[L][H] (protonation constant) [6]: 10.80
- logKCaL(pH7.4) (conditional stability constant) [7]: 10.06
- pCa [7]: 9.06
- logKsel(Gd/Ca) (selectivity constant) [8]: 6.65
- logKsel(Gd/Cu) (selectivity constant) [8]: 4.68
- logKsel(Gd/Zn) (selectivity constant) [8]: 5.43
- logKGdL(pH7.4) (conditional stability constant) [8]: 16.72
- pGd [8]: 15.72
- logKZnL(pH7.4) (conditional stability constant) [9]: 11.29
- pZn [9]: 10.29

SMILES: C=CCOC(=O)C1CCC(CNC(=O)CN2CCN(CC(=O)O)CCN(CC(=O)O)CCN(CC(=O)O)CC2)CC1 (centres unmarked) [Compound 4c, DO3A-tranexamic Acid Ester Derivative 2]
- logKCuL(PH7.4) (conditional stability constant) [5]: 14.77
- pCu [5]: 13.77
- LogK [H2L]/[HL][H] (protonation constant) [6]: 8.64
- LogK [H3L]/[H2L][H] (protonation constant) [6]: 5.45
- LogK [HL]/[L][H] (protonation constant) [6]: 10.62
- logKCaL(pH7.4) (conditional stability constant) [7]: 10.44
- pCa [7]: 9.43
- logKsel(Gd/Ca) (selectivity constant) [8]: 6.55
- logKsel(Gd/Cu) (selectivity constant) [8]: 2.21
- logKsel(Gd/Zn) (selectivity constant) [8]: 3.91
- logKGdL(pH7.4) (conditional stability constant) [8]: 16.99
- pGd [8]: 15.99
- logKZnL(pH7.4) (conditional stability constant) [9]: 13.08
- pZn [9]: 12.08

SMILES: O.O=C([O-])CN1CCN(CC(=O)[O-])CCN(CC(=O)NCC2CCC(C(=O)O)CC2)CCN(CC(=O)[O-])CC1.[Gd+3] (centres unmarked) [Compound 5a]
- R1 relaxivity [10]: 3.9 ± 0.04 mM⁻¹ s⁻¹
- R2 relaxivity [10]: 4.0 ± 0.04 mM⁻¹ s⁻¹
- T1 relaxation time [10]: 256.43 ± 2.63^a msec
- T2 relaxation time [10]: 250.02 ± 2.50 ms

SMILES: O=C(O)CN1CCN(CC(=O)O)CCN(CC(=O)O)CCN(CC(=O)O)CC1 [DOTA]
- LogK [ZnL]/[Zn][L] (stability constant) [1]: 21.05
- logKZnL(pH7.4) (conditional stability constant) [1]: 14.08
- pZn [1]: 15.19
- LogK [CuL]/[Cu][L] (stability constant) [2]: 22.63
- logKCuL(PH7.4) (conditional stability constant) [2]: 15.66
- pCu [2]: 14.05
- LogK [CaL]/[Ca][L] (stability constant) [11]: 17.23
- logKCaL(pH7.4) (conditional stability constant) [11]: 10.26
- LogK [GdL]/[Gd][L] (stability constant) [3]: 25.30
- logKsel(Gd/Ca) (selectivity constant) [3]: 8.07
- logKsel(Gd/Cu) (selectivity constant) [3]: 2.67
- logKsel(Gd/Zn) (selectivity constant) [3]: 4.25
- logKGdL(pH7.4) (conditional stability constant) [3]: 18.33
- pGd [3]: 19.2
- LogK [H2L]/[HL][H] (protonation constant) [4]: 9.68
- LogK [H3L]/[H2L][H] (protonation constant) [4]: 4.55
- LogK [H4L]/[H3L][H] (protonation constant) [4]: 4.13
- LogK [HL]/[L][H] (protonation constant) [4]: 12.09
- ΣpKa (overall basicity) [4]: 30.45

SMILES: O=C(O)CN(CCN(CC(=O)O)CC(=O)O)CCN(CC(=O)O)CC(=O)O [DTPA]
- LogK [ZnL]/[Zn][L] (stability constant) [1]: 18.70
- logKZnL(pH7.4) (conditional stability constant) [1]: 14.38
- pZn [1]: 13.39
- LogK [CuL]/[Cu][L] (stability constant) [2]: 21.38
- logKCuL(PH7.4) (conditional stability constant) [2]: 17.06
- pCu [2]: 16.06
- LogK [CaL]/[Ca][L] (stability constant) [11]: 10.75
- logKCaL(pH7.4) (conditional stability constant) [11]: 6.43
- pCa ([11]; pM = −log[M]free at pH7.4, [M]total = 1 μmol/dm^3, [L]total = 1.1 μmol/dm^3): 5.45
- LogK [GdL]/[Gd][L] (stability constant) [3]: 22.46
- logKsel(Gd/Ca) (selectivity constant) [3]: 11.71
- logKsel(Gd/Cu) (selectivity constant) [3]: 1.08
- logKsel(Gd/Zn) (selectivity constant) [3]: 3.76
- logKGdL(pH7.4) (conditional stability constant) [3]: 18.14
- pGd [3]: 17.14
- LogK [H2L]/[HL][H] (protonation constant) [4]: 8.60
- LogK [H3L]/[H2L][H] (protonation constant) [4]: 4.28
- LogK [H4L]/[H3L][H] (protonation constant) [4]: 2.64
- LogK [HL]/[L][H] (protonation constant) [4]: 10.49
- ΣpKa (overall basicity) [4]: 26.01

SMILES: CNC[C@H](O)[C@@H](O)[C@H](O)[C@H](O)CO.O=C([O-])CN1CCN(CC(=O)[O-])CCN(CC(=O)O)CCN(CC(=O)[O-])CC1.[Gd+3] [Dotarem]
- R1 relaxivity [10]: 3.7 ± 0.04 mM⁻¹ s⁻¹
- R2 relaxivity [10]: 4.1 ± 0.21 mM⁻¹ s⁻¹
- T1 relaxation time [10]: 270.30 ± 2.92 ms
- T2 relaxation time [10]: 244.54 ± 12.5 ms

SMILES: CCOc1ccc(C[C@@H](CN(CCN(CC(=O)O)CC(=O)O)CC(=O)O)N(CC(=O)O)CC(=O)O)cc1 [EOB-DTPA]
- LogK [GdL]/[Gd][L] (stability constant) [3]: 23.46
- logKGdL(pH7.4) (conditional stability constant) [3]: 18.7
- LogK [H2L]/[HL][H] (protonation constant) [4]: 8.63
- LogK [H3L]/[H2L][H] (protonation constant) [4]: 4.26
- LogK [H4L]/[H3L][H] (protonation constant) [4]: 2.73
- LogK [HL]/[L][H] (protonation constant) [4]: 10.91
- ΣpKa (overall basicity) [4]: 26.53

SMILES: CNC[C@H](O)[C@@H](O)[C@H](O)[C@H](O)CO.CNC[C@H](O)[C@@H](O)[C@H](O)[C@H](O)CO.O=C([O-])CN(CCN(CC(=O)[O-])CC(=O)O)CCN(CC(=O)O)C(COCc1ccccc1)C(=O)[O-].[Gd+3] (centres unmarked) [Multihance]
- pattern of evolution of the paramagnetic relaxation rate R1P(t)/R1P(0) (in words) [12]: drastic decrease in the rate
- R1 relaxivity [13]: 4.0 ± 0.2 mM⁻¹ s⁻¹
- R2 relaxivity [13]: 4.3 ± 0.5 mM⁻¹ s⁻¹
- T1 relaxation time [13]: 250.62 ± 12.5 ms
- T2 relaxation time [13]: 235 ± 27.4 ms

SMILES: CCOc1ccc(CC(CN(CCN(CC(=O)[O-])CC(=O)[O-])CC(=O)[O-])N(CC(=O)[O-])CC(=O)[O-])cc1.[Gd+3].[Na+].[Na+] (centres unmarked) [Primovist]
- pattern of evolution of the paramagnetic relaxation rate R1P(t)/R1P(0) (in words) [12]: drastic decrease in the rate
- R1 relaxivity [13]: 4.7 ± 0.2 mM⁻¹ s⁻¹
- R2 relaxivity [13]: 5.1 ± 0.6 mM⁻¹ s⁻¹
- T1 relaxation time [13]: 213.15 ± 9.07 ms
- T2 relaxation time [13]: 198.83 ± 23.4 ms
